Source: BindingDB's records for doi:10.7270/Q2JD4V5T (Burnham Center for Chemical Genomics, 2008)

Molecular target: not listed separately
Assay: PLAP enzyme activity inhibition – biochemical, colorimetric, counter-screen, dose response (AID 779)

Row | SMILES | IC50 [µM]
1 | O=C1/C(=C\c2nc3ccccc3[nH]2)SC(=S)N1c1ccc(F)cc1 [SMR000163732] | > 50

Molecular target: Ephrin type-A receptor 4 (Mus musculus, UniProt Q03137)
Assay: as above

Chain of Ephrin type-A receptor 4 (Q03137 whole entry): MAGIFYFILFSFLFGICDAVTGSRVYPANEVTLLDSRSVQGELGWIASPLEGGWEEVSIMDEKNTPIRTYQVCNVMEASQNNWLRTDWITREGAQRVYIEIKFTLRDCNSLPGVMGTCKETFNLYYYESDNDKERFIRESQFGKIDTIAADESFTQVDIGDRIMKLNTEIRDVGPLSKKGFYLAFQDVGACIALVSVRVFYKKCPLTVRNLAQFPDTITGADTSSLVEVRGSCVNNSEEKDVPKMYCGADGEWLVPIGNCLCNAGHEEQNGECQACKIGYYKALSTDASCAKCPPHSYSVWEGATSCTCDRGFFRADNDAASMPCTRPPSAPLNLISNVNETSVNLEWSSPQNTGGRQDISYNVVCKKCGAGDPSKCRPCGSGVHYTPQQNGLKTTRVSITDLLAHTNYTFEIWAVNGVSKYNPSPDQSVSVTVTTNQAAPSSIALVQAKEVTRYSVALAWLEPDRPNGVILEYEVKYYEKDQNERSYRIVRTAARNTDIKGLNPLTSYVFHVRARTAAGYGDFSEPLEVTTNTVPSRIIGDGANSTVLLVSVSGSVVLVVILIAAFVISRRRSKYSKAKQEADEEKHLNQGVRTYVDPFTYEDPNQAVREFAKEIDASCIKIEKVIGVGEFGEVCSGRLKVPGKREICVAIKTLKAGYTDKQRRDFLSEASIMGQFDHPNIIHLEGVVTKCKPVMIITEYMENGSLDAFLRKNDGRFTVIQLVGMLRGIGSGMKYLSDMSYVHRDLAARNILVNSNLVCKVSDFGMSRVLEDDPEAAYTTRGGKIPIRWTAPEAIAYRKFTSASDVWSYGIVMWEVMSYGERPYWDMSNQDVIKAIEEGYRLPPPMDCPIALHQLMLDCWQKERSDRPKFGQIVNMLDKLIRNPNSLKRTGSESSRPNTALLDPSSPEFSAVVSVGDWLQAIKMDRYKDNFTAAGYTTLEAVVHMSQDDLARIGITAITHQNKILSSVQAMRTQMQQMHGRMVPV

Row | SMILES | IC50 [µM]
2 | CCCCN(CCCC)c1nc2ccccc2nc1C(C#N)C(=O)OCC (stereo unspecified) [(2Z)-2-cyano-2-[3-(dibutylamino)-1H-quinoxalin-2-ylidene]acetic acid ethyl ester] | > 50
3 | CC(CC(=O)c1ccccc1)N=Nc1nc2ccccc2s1 (stereo unspecified) [(E)-3-(1,3-benzothiazol-2-ylhydrazo)-1-phenyl-2-buten-1-one] | > 50
4 | CCCCOP(=O)(OCCCC)C(C#N)C(C)=O (stereo unspecified) [(Z)-2-dibutoxyphosphoryl-3-hydroxy-2-butenenitrile] | > 50
5 | Cc1ccc(Cl)cc1-n1c(C)nc(Cc2ccc([N+](=O)[O-])cc2)c1O [MLS000519000] | > 50
6 | CCN1C(=O)C(C=NN=Cc2ccccc2)c2ccc(C3=NNC(=O)CC3)cc21 (stereo unspecified) [benzaldehyde {[1-ethyl-2-oxo-6-(6-oxo-1,4,5,6-tetrahydro-3-pyridazinyl)-1,2-dihydro-3H-indol-3-ylidene]methyl}hydrazone] | > 50
